Literature values, collected in patent publication US20250093362A1, “HIGH-THROUGHPUT ENGINEERING OF MOLECULAR GLUES” (Frontier Medicines Corporation, priority 2021, published 2025).

Molecular target: CDK12-cyclin K and CUL4 adaptor protein DDB1 (Homo sapiens, UniProt Q16531+Q9NYV4)
Settings: analog of CR8 lacking a single methylene group; Nat. 2020, 585 (7824), 293

Chain of CDK12-cyclin K and CUL4 adaptor protein DDB1 (Q9NYV4 713-1052 limits assumed): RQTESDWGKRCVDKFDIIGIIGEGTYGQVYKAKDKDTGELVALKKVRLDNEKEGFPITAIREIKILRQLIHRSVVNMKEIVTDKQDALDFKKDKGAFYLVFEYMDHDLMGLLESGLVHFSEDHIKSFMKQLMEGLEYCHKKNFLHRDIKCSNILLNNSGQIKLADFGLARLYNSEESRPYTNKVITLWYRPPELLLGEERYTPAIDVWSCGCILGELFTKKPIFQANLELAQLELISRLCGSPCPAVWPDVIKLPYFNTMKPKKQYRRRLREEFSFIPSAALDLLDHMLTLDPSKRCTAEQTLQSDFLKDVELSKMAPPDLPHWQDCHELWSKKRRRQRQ
Chain of CDK12-cyclin K and CUL4 adaptor protein DDB1 (O75909 1-267 partner limits assumed): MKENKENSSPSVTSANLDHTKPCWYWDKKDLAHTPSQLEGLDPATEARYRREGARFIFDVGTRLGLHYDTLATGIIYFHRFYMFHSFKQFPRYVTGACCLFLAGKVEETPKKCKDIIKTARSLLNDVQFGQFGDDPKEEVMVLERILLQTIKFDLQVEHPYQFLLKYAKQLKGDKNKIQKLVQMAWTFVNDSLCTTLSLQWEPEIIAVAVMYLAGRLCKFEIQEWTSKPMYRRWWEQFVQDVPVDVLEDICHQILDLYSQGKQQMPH
Chain of CDK12-cyclin K and CUL4 adaptor protein DDB1 (Q16531 whole entry): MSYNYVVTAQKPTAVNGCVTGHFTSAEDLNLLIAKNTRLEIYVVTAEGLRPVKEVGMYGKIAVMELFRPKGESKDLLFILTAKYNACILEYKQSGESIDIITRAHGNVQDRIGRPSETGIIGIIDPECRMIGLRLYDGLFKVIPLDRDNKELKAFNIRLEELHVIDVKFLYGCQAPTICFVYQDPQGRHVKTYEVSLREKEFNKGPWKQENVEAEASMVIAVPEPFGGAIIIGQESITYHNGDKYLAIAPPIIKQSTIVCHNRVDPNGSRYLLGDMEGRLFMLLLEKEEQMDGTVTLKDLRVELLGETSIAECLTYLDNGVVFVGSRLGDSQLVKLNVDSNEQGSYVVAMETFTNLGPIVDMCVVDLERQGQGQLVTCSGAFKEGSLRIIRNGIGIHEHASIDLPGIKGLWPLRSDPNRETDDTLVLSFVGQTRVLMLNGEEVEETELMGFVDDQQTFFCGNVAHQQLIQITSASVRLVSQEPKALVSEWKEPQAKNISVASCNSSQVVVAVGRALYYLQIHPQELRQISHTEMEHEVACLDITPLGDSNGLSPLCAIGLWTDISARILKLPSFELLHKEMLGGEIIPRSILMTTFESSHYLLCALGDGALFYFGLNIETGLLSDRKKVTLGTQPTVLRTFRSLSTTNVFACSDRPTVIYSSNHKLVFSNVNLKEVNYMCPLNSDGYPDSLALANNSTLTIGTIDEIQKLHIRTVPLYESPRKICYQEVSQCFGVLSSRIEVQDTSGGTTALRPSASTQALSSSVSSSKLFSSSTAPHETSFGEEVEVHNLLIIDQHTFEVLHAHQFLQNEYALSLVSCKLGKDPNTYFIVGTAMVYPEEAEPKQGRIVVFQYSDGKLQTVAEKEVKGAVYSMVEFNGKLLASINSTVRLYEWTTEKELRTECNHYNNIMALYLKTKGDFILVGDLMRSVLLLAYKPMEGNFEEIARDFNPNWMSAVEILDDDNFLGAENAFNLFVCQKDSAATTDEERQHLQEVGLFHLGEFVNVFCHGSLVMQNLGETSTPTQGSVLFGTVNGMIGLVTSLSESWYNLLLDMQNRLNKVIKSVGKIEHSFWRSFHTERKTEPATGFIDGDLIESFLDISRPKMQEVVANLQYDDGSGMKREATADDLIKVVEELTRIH

Which “driving formation of the ternary complex of CDK12-cyclin K and DDB1” value does the source give for `CC[C@H](CO)Nc1nc(Nc2ccc(-c3ccccn3)cc2)c2ncn(C(C)C)c2n1` [DRF053] here?
The value was “ineffectual”.
